# According to patent US9133158B2, “Bicyclic dihydroisoquinoline-1-one derivatives” (Hoffmann-La Roche Inc., priority 2011, dated 2015):
# Experiments:
# human CYP11B2 = molecular target: T1, human CYP11B2 (Homo sapiens, UniProt P19099); assay: G-402 cellular enzyme assay, human CYP11B2 (aldosterone release, HTRF); assay type: cell-based; details: G-402 cells, 1 μM Deoxycorticosterone
# T1 construct: expressed in transfected cells
# T1 sequence (P19099 25-503): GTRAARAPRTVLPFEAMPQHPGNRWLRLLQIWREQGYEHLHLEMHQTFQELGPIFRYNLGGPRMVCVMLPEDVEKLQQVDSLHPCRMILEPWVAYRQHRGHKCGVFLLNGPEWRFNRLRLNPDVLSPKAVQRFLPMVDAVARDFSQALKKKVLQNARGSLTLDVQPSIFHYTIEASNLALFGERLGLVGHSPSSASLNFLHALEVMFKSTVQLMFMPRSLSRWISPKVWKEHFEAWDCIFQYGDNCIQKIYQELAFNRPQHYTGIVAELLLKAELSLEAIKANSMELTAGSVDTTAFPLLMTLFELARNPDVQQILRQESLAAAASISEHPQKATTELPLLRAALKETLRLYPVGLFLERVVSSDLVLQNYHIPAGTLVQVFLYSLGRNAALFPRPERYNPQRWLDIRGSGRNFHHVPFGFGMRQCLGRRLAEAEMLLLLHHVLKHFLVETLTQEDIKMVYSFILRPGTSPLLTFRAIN
# How it was run: (§1)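 G-402 cells stably expressing human CYP11B1 or CYP11B2, in DMEM/F12 with 2.5% charcoal-treated FCS, were incubated 16 h with test compound and substrate (1 μM 11-deoxycortisol for CYP11B1; 1 μM deoxycorticosterone for CYP11B2). Cortisol or aldosterone in supernatant was quantified by HTRF; EC50 from 4-parameter MMF fit.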
# human CYP11B1 = molecular target: T2, human CYP11B1 (Homo sapiens, UniProt P15538); assay: G-402 cellular enzyme assay, human CYP11B1 (cortisol release, HTRF); assay type: cell-based; details: G-402 cells, 1 μM Deoxycortisol
# T2 construct: expressed in transfected cells
# T2 sequence (P15538 25-503): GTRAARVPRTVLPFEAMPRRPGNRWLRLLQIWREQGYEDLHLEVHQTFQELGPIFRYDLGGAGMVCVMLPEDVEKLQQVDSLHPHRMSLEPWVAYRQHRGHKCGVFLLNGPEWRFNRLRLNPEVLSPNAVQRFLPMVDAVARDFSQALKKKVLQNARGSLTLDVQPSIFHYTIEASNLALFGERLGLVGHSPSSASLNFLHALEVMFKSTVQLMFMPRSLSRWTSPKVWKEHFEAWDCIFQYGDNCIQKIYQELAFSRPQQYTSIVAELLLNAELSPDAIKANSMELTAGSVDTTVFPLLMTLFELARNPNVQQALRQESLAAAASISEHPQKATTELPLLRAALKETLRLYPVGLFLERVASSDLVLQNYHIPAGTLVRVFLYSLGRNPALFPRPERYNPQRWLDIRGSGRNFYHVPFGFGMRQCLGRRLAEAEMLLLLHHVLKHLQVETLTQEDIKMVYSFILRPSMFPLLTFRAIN
# How it was run: as §1
Compound,EC50 (human CYP11B2) [nM],EC50 (human CYP11B1) [nM]
"CC(c1cncc(N2CCc3cc(Cl)ccc3C2=O)c1)N1CCCC1=O (stereo not shown) [Example 274, 6-Chloro-2-{5-[1-(2-oxo-pyrrolidin-1-yl)-ethyl]-pyridin-3-yl}-3,4-dihydro-2H-isoquinolin-1-one]",128,1050
"CC1(C)c2cc(Cl)ccc2C(=O)N1c1cncc(N2CCN(C(=O)c3ncccc3Cl)CC2)c1 [Example 459, 5-Chloro-2-{5-[4-(3-chloro-pyridine-2-carbonyl)-piperazin-1-yl]-pyridin-3-yl}-3,3-dimethyl-2,3-dihydro-isoindol-1-one]",5.6,594
"O=C1c2ccc(Cl)cc2CCN1c1cncc(CN2C(=O)CC[C@H]2CO)c1 [Example 83, 6-Chloro-2-[5-((S)-2-hydroxymethyl-5-oxo-pyrrolidin-1-ylmethyl)-pyridin-3-yl]-3,4-dihydro-2H-isoquinolin-1-one]",590,15700
"CC1(C)c2nc(Cl)ccc2C(=O)N1c1cncc(F)c1 [Example 292, 2-Chloro-6-(5-fluoro-pyridin-3-yl)-7,7-dimethyl-6,7-dihydro-pyrrolo[3,4-b]pyridin-5-one]",515,36200
"CC1(C)c2nc(Cl)ccc2C(=O)N1c1cccnc1 [Example 298, 2-Chloro-7,7-dimethyl-6-pyridin-3-yl-6,7-dihydro-pyrrolo[3,4-b]pyridin-5-one]",175,13700
"CC(OCc1cncc(N2CCc3cc(Cl)ccc3C2=O)c1)C(F)(F)F (stereo not shown) [Example 195, 6-Chloro-2-[5-(2,2,2-trifluoro-1-methyl-ethoxymethyl)-pyridin-3-yl]-3,4-dihydro-2H-isoquinolin-1-one]",37.3,486
"O=Cc1cncc(N2CCc3cc(Cl)ccc3C2=O)c1 [Example 9, 5-(6-Chloro-1-oxo-3,4-dihydro-1H-isoquinolin-2-yl)-pyridine-3-carbaldehyde]",117,4740
"O=C1c2ccc(Cl)cc2CCN1c1cncc(CN2CCCS2(=O)=O)c1 [Example 82, 6-Chloro-2-[5-(1,1-dioxo-1^λ6-isothiazolidin-2-ylmethyl)-pyridin-3-yl]-3,4-dihydro-2H-isoquinolin-1-one]",78.9,597
"CC1(C)c2cc(Cl)ccc2C(=O)N1c1cccnc1 [Example 128, 5-Chloro-3,3-dimethyl-2-pyridin-3-yl-2,3-dihydro-isoindol-1-one]",108,4280
"Cn1cc(-c2cncc(N3CCc4cc(Cl)ccc4C3=O)c2)cn1 [Example 239, 6-Chloro-2-[5-(1-methyl-1H-pyrazol-4-yl)-pyridin-3-yl]-3,4-dihydro-2H-isoquinolin-1-one]",10.5,90
"CC1(C)c2nc(Cl)ccc2C(=O)N1c1cncc(CNc2cc[nH]n2)c1 [Example 383, 2-Chloro-7,7-dimethyl-6-{5-[(1H-pyrazol-3-ylamino)-methyl]-pyridin-3-yl}-6,7-dihydro-pyrrolo[3,4-b]pyridin-5-one]",21,771
"CC(=O)NC1CCCc2c1cncc2N1C(=O)c2ccc(Cl)cc2C1(C)C (single isomer, unassigned) [Example 467, N—[(R or S)-4-(6-Chloro-1,1-dimethyl-3-oxo-1,3-dihydro-isoindol-2-yl)-5,6,7,8-tetrahydro-isoquinolin-8-yl]-acetamide]",28.8,2180
"CCC1c2cc(Cl)ccc2C(=O)N1c1cncc2c1CCCC2NS(C)(=O)=O (mixture of isomers) [Example 346, N-[4-(5-Chloro-3-ethyl-1-oxo-1,3-dihydro-isoindol-2-yl)-5,6,7,8-tetrahydro-isoquinolin-8-yl]-methanesulfonamide]",26.3,2570
"Cn1ncc2c(N3Cc4cc(Cl)ccc4C3=O)cncc21 [Example 116, 5-Chloro-2-(1-methyl-1H-pyrazolo[3,4-c]pyridin-4-yl)-2,3-dihydro-isoindol-1-one]",132,5130
